Reference: ChEMBL document CHEMBL1151316, “Pyrrolizidine alkaloids from Heliotropium megalanthum” (J Nat Prod, 1998)

What was measured:
[1] = test system: Leptinotarsa decemlineata; experiment: Insecticidal activity against haemolymph dosed Leptinotarsa decemlineata assessed as increase in mortality after 2 days; type: functional
[2] = test system: Leptinotarsa decemlineata; experiment: Antifeedant activity in Leptinotarsa decemlineata assessed as reduction of feeding by choice test; type: functional, organism-based
[3] = test system: Leptinotarsa decemlineata; experiment: Antifeedant activity in Leptinotarsa decemlineata assessed as reduction of feeding by no-choice test; type: functional, organism-based
[4] = test system: Spodoptera littoralis; experiment: Antifeedant activity in Spodoptera littoralis L6 larvae assessed as reduction of feeding at 5 ug/cm2 by choice test; type: functional; parameters: scale not given: the % may be the effect or the level left
[5] = test system: Leptinotarsa decemlineata; experiment: Antifeedant activity in Leptinotarsa decemlineata assessed as reduction of feeding at 100 ug/cm2 by no-choice test; type: functional; parameters: scale not given: the % may be the effect or the level left
[6] = test system: Spodoptera littoralis; experiment: Insecticidal activity against orally dosed Spodoptera littoralis L6 larvae assessed as relative growth rate after 72 hrs; type: functional
[7] = test system: Spodoptera littoralis; experiment: Antifeedant activity in Spodoptera littoralis L6 larvae assessed as reduction of feeding at 100 ug/cm2 by choice test; type: functional; parameters: scale not given: the % may be the effect or the level left
[8] = test system: Spodoptera littoralis; experiment: Antifeedant activity in Spodoptera littoralis L6 larvae assessed as reduction of feeding by choice test; type: functional, organism-based
[9] = test system: Leptinotarsa decemlineata; experiment: Antifeedant activity in Leptinotarsa decemlineata assessed as reduction of feeding at 100 ug/cm2 by choice test; type: functional; parameters: scale not given: the % may be the effect or the level left
[10] = test system: Spodoptera littoralis; experiment: Insecticidal activity against orally dosed Spodoptera littoralis L6 larvae assessed as relative consumption rate after 72 hrs; type: functional

## CC(=O)O[C@H](C)[C@](O)(C(=O)OC[C@@H]1CCN2CCC[C@@H]12)C(C)C
[1]
  Activity: 5%
[2]
  EC50: 1.79 microg/cm2
[3]
  EC50: 2.92 microg/cm2

## CO[C@@H](C)[C@](O)(C(=O)OCC1=CCN2CC[C@H](O)[C@@H]12)C(C)(C)O [EUROPINE]
[4]
  Activity: 67%

## CC(C)[C@](O)(C(=O)OCC1=CCN2CC[C@@H](O)[C@@H]12)[C@@H](C)O [LYCOPSAMINE]
[5]
  Activity: 68.4%
[1]
  Activity: 12%
[6]
  Activity: 3.32 mg
[7]
  Activity: 61.08%
[3]
  EC50: 25.97 microg/cm2
[8]
  EC50: 31.62 microg/cm2
[9]
  Activity: 27.53%
[10]
  Activity: 21.19 mg

## CC(C)[C@@](O)(C(=O)OC[C@H]1CCN2CC[C@@H](O)[C@@H]12)[C@H](C)O [MEGALANTHONINE]
[1]
  Activity: 10%
